# Literature values in patent publication US20210386733A1, “LYSINE-SPECIFIC HISTONE DEMETHYLASE INHIBITORS FOR THE TREATMENT OF MYELOPROLIFERATIVE NEOPLASMS” (Imago Biosciences, Inc., priority 2019, published 2021).
# System: primary myelofibrosis patients
# Conditions: 50 to 100 mg/day in combination with prednisone; cited from earlier work
smiles,measurement,value
O=C1CCC(N2C(=O)c3ccccc3C2=O)C(=O)N1 (centres unmarked) [Thalidomide],patients with improved anemia and thrombocytopenia,approximately 60%
same,patients with reduced spleen size,approximately 20%
